Reference: PubChem BioAssay AID1259375 (The Scripps Research Institute Molecular Screening Center, 2018)
Calls of active or inactive are those of the source. How the calls were made is not given here.

target: Microphthalmia-associated transcription factor (Homo sapiens) (UniProt O75030); experiment: MITF inhibitors by FRET titration, dose response, biochemical, high throughput (AID 1259375); details: FRET biochemical assay, MITF inhibition;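 further: FRET between CFP-tagged and YFP-tagged MITF protein partners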
Sequence (O75030 whole entry, looked up): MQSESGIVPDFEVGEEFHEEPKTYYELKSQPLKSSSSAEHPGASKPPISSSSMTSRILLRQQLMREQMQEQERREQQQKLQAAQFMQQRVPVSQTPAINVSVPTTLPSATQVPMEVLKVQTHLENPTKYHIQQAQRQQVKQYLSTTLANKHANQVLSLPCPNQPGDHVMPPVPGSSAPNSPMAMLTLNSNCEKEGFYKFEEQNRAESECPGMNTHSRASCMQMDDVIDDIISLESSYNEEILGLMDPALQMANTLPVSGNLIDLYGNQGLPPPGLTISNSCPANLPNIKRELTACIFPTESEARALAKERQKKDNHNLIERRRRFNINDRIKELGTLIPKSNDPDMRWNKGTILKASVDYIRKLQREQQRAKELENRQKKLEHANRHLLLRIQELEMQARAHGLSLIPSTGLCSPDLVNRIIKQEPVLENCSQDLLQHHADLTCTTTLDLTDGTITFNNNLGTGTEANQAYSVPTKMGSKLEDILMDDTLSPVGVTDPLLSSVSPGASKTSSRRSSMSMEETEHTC

IC50 | Structure (SMILES)
2.64 µM | N#CC1=c2/c(=C/c3ccco3)c(N)c(C#N)n2C(=O)C(c2ccco2)S1 (stereo not drawn)
> 7.21 µM (inactive) | O=C(COC(=O)COc1ccc(Cl)cc1)NCc1ccco1
> 7.59 µM (inactive) | O=C(O)c1cc(-c2ccco2)nc2ccccc12
> 6.74 µM (inactive) | NC(=O)c1cccc(-c2cccs2)c1
> 6.53 µM (inactive) | N#CC1=C(N)n2c(s/c(=C\c3ccco3)c2=O)=C(C#N)C1c1ccco1 (stereo not drawn)
> 6.48 µM (inactive) | c1ccc2c(c1)OCC(c1nc3c(-c4ccncc4)cncc3[nH]1)O2 (stereo not drawn)
> 9.74 µM (inactive) | O=c1[nH]c(-c2ccco2)nc2sc3c(c12)CCCC3
1.8 µM | O=C(NCCO)c1ccc2nc(-c3ccco3)c(-c3ccco3)nc2c1
> 6.86 µM (inactive) | Cc1cc2c(c(=O)[nH]1)C(=O)O/C2=C\c1ccc(C)o1
> 6.48 µM (inactive) | COCCCNC(=O)/C(C#N)=C/c1ccc(-c2ccc(Cl)c(C(=O)O)c2)o1
> 6.48 µM (inactive) | COc1ccc2c(c1)CC(C(=O)Nc1ccc(-c3cn[nH]c3)cc1OCC#N)CO2 (stereo not drawn)
inactive | Cc1cc2c(c(=O)[nH]1)C(=O)O/C2=C\c1ccco1

Second part, the molecule before the results:

Structure (SMILES) | IC50
COc1ccc(C)cc1NC(=O)C(NCC(O)c1ccccc1)c1ccccc1 (stereo not drawn) | > 7.02 µM (inactive)
O=C(O)c1ccc(O)c(C=Nc2ccc(N=Cc3cc(C(=O)O)ccc3O)cc2)c1 | > 6.48 µM (inactive)
O=C1Nc2c(C(=O)O)cccc2C1=O | > 7.92 µM (inactive)
O=C1N[C@H](Cc2ccc(O)cc2)C(=O)N2CCN(C(=O)NCc3ccccc3)C[C@H]12 | > 6.48 µM (inactive)
OC[C@H]1OC([S-])[C@H](O)[C@@H](O)[C@@H]1O.[Au+] (stereo partly drawn) | > 6.48 µM (inactive)
Cc1ccc2[nH]c(=O)c(=O)[nH]c2c1 | > 12.1 µM (inactive)
CN=C1SC(CC(=O)Nc2cccc(C(=O)O)c2)C(=O)N1C (stereo not drawn) | > 6.48 µM (inactive)
Nc1ccc(O)c(C(=O)O)c1 | 2.52 µM
NC(=O)c1ccc(N=Cc2cc3c(cc2[N+](=O)[O-])OCO3)cc1 | 4.37 µM
CC(=O)NCC(c1cccs1)S(=O)(=O)c1ccc(C)cc1 (stereo not drawn) | > 6.41 µM (inactive)
Nc1ccc(C(=O)O)c(O)c1 | 1.96 µM
Cn1nnc(-c2ccc(Nc3nccc(-c4ccc5nc(C6CC6)[nH]c(=O)c5c4)n3)cc2)n1 | > 6.48 µM (inactive)
Cc1cc(C)n2nc(N)c(N)c2n1 | > 11.6 µM (inactive)
CCN(C(=O)C1COc2ccccc2O1)C12CC3CC(CC(C3)C1)C2 (stereo not drawn) | > 6.83 µM (inactive)
O=Cc1cccn1-c1ccc(C(=O)O)cc1 | > 6.48 µM (inactive)
CN(C)CCS(=O)c1cc(-c2cn[nH]c2)ccc1NC(=O)[C@H]1Cc2cc(F)ccc2CN1 (stereo partly drawn) | > 6.48 µM (inactive)
O=C(Nc1ccc(N2CCOCC2)cc1)c1cccc(Nc2ccncn2)n1 | > 7.56 µM (inactive)
CCOC(=O)C1C2NC(=S)N(c3ccccc3)C1(C)Oc1cc(OC)ccc12 (stereo not drawn) | > 6.4 µM (inactive)
C=C1c2c(Cl)ccc(O)c2C(O)=C2C(=O)[C@]3(O)C(O)=C(C(N)=O)C(=O)[C@@H](N(C)C)[C@@H]3[C@@H](O)[C@H]12 | 2.58 µM
CN(C)C(=O)N1CCN(S(=O)(=O)c2cccc([N+](=O)[O-])c2)CC1 | > 6.48 µM (inactive)
CC1=C/C(=N\N=C2\NC(=O)C(CC(=O)Nc3ccc(C(=O)O)cc3)S2)CC(C)(C)C1 (stereo not drawn) | > 6.48 µM (inactive)
